Our source for the melting point values is a melting point compilation (Tetko et al.; mined from patent text by program, amines drawn as free bases though some values may be those of a salt).

As for `CN(C)C(=O)c1nn(-c2cccc(F)c2)c(=O)c2c1c1ccc(Cl)cc1n2C`, the melting point lay in the range of 208 to 209 °C.
With `CCOC(=O)c1cn(-c2ccc(F)cc2F)c2nc(SCC)c(F)cc2c1=O` the figure was 170 to 171 °C; with `O=C(N[C@H](Cc1ccc(C(F)(F)F)cc1)[C@@H](O)c1ccccc1)c1ccc(F)c2ccccc12` (racemic), 217 to 218 °C; with `Cc1cc(Cl)ccc1NC(=O)C(=O)N1CCC(Cc2ccccc2)CC1`, 105 to 108 °C.
Regarding `COc1c(Sc2ccccc2)c2cccnc2n1-c1ccccc1`, the melting point is 86 to 87.5 °C.
With `O=C(COc1ccc(-c2cc3ccc(OCC(=O)c4ccc(Cl)cc4)cc3s2)cc1)c1ccc(Cl)cc1` the figure was 210 °C.
`NCCCCn1c(-c2ccccc2)nc2c(N)nc3ccccc3c21`: the melting point is 175 to 177 °C.
The figure for `CC(C)Cn1c(=O)n(C)c(=O)c2c(SCCCC(=O)O)c(Cc3cccc4ccccc34)sc21` is 172 to 173 °C.
With `CC1CC(=O)NN=C1c1ccc(N)c(N)c1` (stereo unspecified) the figure was 195 to 196 °C; with `CC(CCCN(C)c1ccccc1)NCC(O)c1ccc(O)c(C(N)=O)c1` (stereo unspecified), 155 to 157 °C.
With `CC(C)(C)c1cc(C(=O)Nc2cccc(OCc3cncc(Br)c3)c2)ccc1O` the figure was 105 to 111 °C; with `CCOc1cc(N)ccc1-c1ccc(-c2ccc(N)cc2OCC)o1`, 192 to 193 °C; with `CC1(C)C2CC[C@]1(CS(=O)(=O)NCCNCC1COc3ccccc3O1)C(=O)C2` (stereo partly specified), 143 to 146 °C.
Regarding `O=CNc1ccc(C=O)cc1[N+](=O)[O-]`, the melting point fell in the range of 183 to 191 °C.
For the molecule `C[C@@H](n1cc(-c2ccccc2)nn1)[C@](O)(Cn1cncn1)c1ccc(F)cc1F`, the melting point lay in the range of 148 to 149 °C.
The figure for `CCCCn1c(Nc2cc(Cl)cc(C(F)(F)F)c2)nc(C(F)(F)F)cc1=O` is 157 to 158 °C; for `COc1cc(CNC(=O)c2cc3c(=O)n(Cc4ccc([N+](=O)[O-])nc4)c(=O)n(C)c3s2)ccn1` it is 200 to 207 °C; for `Cc1ccc(O)c(NC(=O)c2cc(C)sc2Br)c1` it is 173 to 175 °C.
The molecule `CSc1ncc2cc(Cc3ccccc3)oc2n1` gave a melting point of 69 to 72.2 °C.
The figure for `COC(=O)c1cc(C#Cc2cnc3nc(NC(=O)C(C)(C)C)nc(O)c3c2)cn1[Si](C(C)C)(C(C)C)C(C)C` is 163 to 165 °C; for `CCOC(=O)c1ccccc1NCCOc1cccc2ccccc12` it is 81 to 83 °C; for `CC(C)CC(=O)Nc1c(C(=O)c2ccoc2)[nH]c2cc(Cl)ccc12` it is 202 to 203 °C.
The figure for `COc1cc(C#CC(=O)NCCCNC(=O)C#Cc2cc(OC)c(OC)c(OC)c2)cc(OC)c1OC` is 158 to 160 °C; for `COc1cccc(CCc2c(CCNC(=O)CCCCC(=O)NCCc3ccccc3)ccc(OC)c2OC)c1` it is 150 to 151 °C; for `COC1=C(OC)C(=O)C(CCCCCCCCCO)=C(C)C1=O` it is 45 °C.
The figure for `Clc1ccc(-c2nc(COc3ccc(CCCn4ccnc4)cc3)co2)cc1` is 116 to 117 °C; for `O=C1Nc2ccccc2C12COc1cc3c(cc12)CCCO3` (stereo unspecified) it is 216 to 220 °C.
As to `COc1cc(C(=O)O)cc2ccc3ccccc3c(=O)c12`, the melting point was 252 to 253 °C.
The figure for `COc1nc(C)cnc1NS(=O)(=O)c1ccccc1-c1ccc(CC(C)C)c(N)c1` is 160 to 162 °C; for `CCOC(=O)C(C)(C)CCCCOc1ccc(NC(=O)CCCCCn2ccnc2)cc1` it is 64 to 65 °C.
`O=C(Cc1c(-c2ccccc2)c2cc3c(cc2oc1=O)CCC3)Nc1c(Cl)cncc1Cl` registered a melting point of 257 to 259 °C.
For `C=C(C(=O)c1ccc(OC)c(Cl)c1Cl)c1ccccc1`, the melting point is 83.5 to 86 °C.
With `COc1cc2c(cc1OCc1ccccc1)CCN(Cc1cccc([N+](=O)[O-])c1)C2` the figure was 109 to 110 °C; with `CC(CNc1c(C(=O)O)cccc1[N+](=O)[O-])NCc1ccccc1` (stereo unspecified), 227 °C; with `CCCc1c2c(c(O)c3c(=O)cc(C(=O)O)oc13)CCCC2`, 260 to 262 °C.
For `C#CCOc1ccc(C(=O)OC)c(O)c1`, the melting point is 142 °C.
In the case of `CC1(COc2cc(/C=C/C(=O)O)n(Cc3ccc(C(F)(F)F)cc3Cl)n2)COC1`, the melting point lay within 148 to 149 °C.
`CC(C)(C)OC(=O)NCCCCCCNS(=O)(=O)c1ccc(Oc2ccccc2)cc1` gave a melting point of 77 to 78 °C.
The molecule `CNC(=O)c1cc(C)nc(NC(=O)c2cc(Cl)nn2-c2ncccc2Cl)n1` registered a melting point of 198 to 199 °C.
Turning to `CC(=O)Nc1ccc(NC(=O)CN2CCC(Cc3ccc(F)cc3)CC2)cc1`, the melting point fell in the range of 173 to 180 °C.
For the molecule `N#Cc1c(N2CCN(C(=O)c3cccs3)CC2)c2cccnc2n(Cc2ccccc2F)c1=O`, the melting point was 286 °C.
With `COc1ccc(Cl)cc1C(=O)N(CCCC(=O)O)c1ccc(OC)c(-c2ccccc2)c1` the figure was 155 to 156 °C.
The figure for `COC(=O)C(C)Oc1ccc(Oc2cnc3cc(Cl)c(Cl)cc3n2)cc1` (stereo unspecified) is 100 to 105 °C.
The figure for `COC1=C(OC)CC(C=C(C#N)C(N)=O)C=C1` (stereo unspecified) is 170 to 171 °C; for `O=C(O)c1cccc(-c2nc(-c3ccc(C(F)(F)F)cc3)cs2)c1` it is 230 to 231 °C; for `Cc1ncccc1-c1nc(C(F)(F)F)cn1-c1ccc(S(N)(=O)=O)cc1` it is 235 to 237 °C.
With `O=c1nc(-c2cccc(CN3CCC(c4ccccc4)CC3)n2)sc2ccccc12`, the melting point lay within 207 to 208 °C.
`O=C1OC(CN2CCC(O)(c3ccccc3)CC2)CN1c1ccccc1` (stereo unspecified) showed a melting point of 121 to 122 °C.
With `O=C(O)C1(C2CCCc3ccccc32)CC1` (stereo unspecified) the figure was 140 to 142 °C.
For `O=C(O)c1cccc(-n2c(-c3ccccc3)cc3c2-c2ccccc2CC3)c1`, the melting point was in the range of 225 to 228 °C.
Turning to `CCOC(=O)c1ccc(-c2nc(COc3ccc(COc4nn(-c5ccccc5)cc4C=O)cc3OC)c(C)o2)o1`, the melting point is 143 to 145 °C.
With `CC(=O)NC(Cc1c[nH]c2ccccc12)C(=O)NCc1cc(C(F)(F)F)cc(C(F)(F)F)c1` (stereo unspecified) the figure was 171 to 173 °C.
Molecule `CCOC(=O)/C(=C/c1conc1-c1ccc(OC)cc1OCc1ccccc1C(=O)OC)Cc1cc2c(cc1OC)OCO2` came in with a melting point of 135 to 137 °C.
`Cc1c(-c2ccc(Cl)s2)ccc(N)c1C#N` yielded a melting point of 108 to 110 °C.
The figure for `CCOC(=O)c1ccc([N+](=O)[O-])cc1C` is 71 to 72 °C.
Molecule `CN(C)CCN1C(=O)C(NC(=O)c2ccc(Cl)cc2)C(C)(C)SC1=S` (stereo unspecified) came in with a melting point of 152 to 153 °C.
Molecule `C=CCn1cc2cc3ncc(-c4ccc(OC)c(F)c4)nc3cc2n1` returned a melting point of 196 to 200 °C.
With `CC(=O)N1CCN(c2cc(-c3cnc4c(c3)N(Cc3cc(Cl)ccc3C(F)(F)F)CCN4)ccn2)CC1` the figure was 241 °C; with `O=C(NC(CN1CCC(=C2c3ccccc3CCc3ccccc32)CC1)C(=O)O)OCc1ccccc1` (stereo unspecified), 150 to 152 °C.
`COc1cc2nc(S)[nH]c2cc1OC`: the melting point lay in the range of 278 to 280 °C.
With `CCCCCCC(=O)c1ccc2cc(OC)c(OC)cc2c1` the figure was 77 to 78 °C; with `CCOc1cc(N)nc(Cl)n1`, 133 °C; with `CC(C)COc1c(-c2ccc(S(N)(=O)=O)cc2)cnn(-c2cccc(Cl)c2)c1=O`, 80 to 85 °C.
On to `CCOC(=O)C1=C(COCc2nnn(CCNC(=NC#N)SC)n2)NC(C)=C(C(=O)OC)C1c1cccc(Cl)c1Cl` (stereo unspecified), for which the melting point lay within 78 to 80 °C.
In turn, `CC=COC1=C(O)C(CCC=CCCCCCCCCCCCCCC)OC1=O` (stereo unspecified) came in with a melting point of 42 to 45 °C.
`CCOCCOc1ncc2cc(-c3c(Cl)cccc3Cl)c(=N)n(C)c2n1` returned a melting point of 133 to 135 °C.
As to `C=C(C=O)c1ccc(C)cc1[N+](=O)[O-]`, the melting point fell in the range of 58.5 to 60 °C.
For `Cn1cc2c(nc(NC(=O)Nc3ccc(CC(=O)NCCCOCCOCCOCCCNC(=O)OC(C)(C)C)cc3)n3nc(-c4ccco4)nc23)n1`, the melting point was 151 to 158 °C.
The figure for `FC(F)(F)c1ccc2nc(N3CCN(c4ccncc4C(F)(F)F)CC3)[nH]c2c1` is 220 to 224 °C; for `COC(=O)c1ccccc1C=Nc1cc(C)ccc1O` it is 82 to 83 °C; for `COC(=O)COc1cc(C(C)=O)c(O)c2ccccc12` it is 123 to 124 °C.
With `c1nc2c(cc1NC1=NCCN1)CCCC2` the figure was 201 to 203 °C.
The molecule `O=c1c(C2=Nc3ccccc3S(=O)(=O)N2)c(O)c2ccccc2n1CCCC(F)(F)F` had a melting point of 249 to 250 °C.
With `COc1ccc(OC)c(C#N)c1C#N` the figure was 276 to 280 °C; with `O=C(Nc1ccc(Cl)c(C(F)(F)F)c1)N[C@H]1CC[C@H](O)CC1`, 203 to 207 °C; with `CCCOc1ccccc1-c1nc2nc(NCCC(=O)OCC)ncc2c(=O)[nH]1`, 142 to 143 °C.
The molecule `CCOC(C)=C(C#N)C(=O)Nc1ccccc1F` had a melting point of 158 to 160 °C.
Molecule `CCOCCOc1ccc(C(C)C)c(NC(=O)CN2CCN(CCCSc3nc4ccccc4o3)CC2)c1C(C)C` registered a melting point of 99 to 100 °C.
The molecule `CCN1C(=O)CCCc2c1ccc(Nc1ncc(Cl)c(Nc3ccccc3S(=O)(=O)N(C)C)n1)c2OC` had a melting point of 183 °C.
The figure for `CC(C)(C)ONC(=O)[C@H]1CNCCN1C(=O)OC(C)(C)C` is 113 to 114 °C.
The figure for `COc1cccc(Sc2ccc(O)cc2)n1` is 88.5 to 94.5 °C; for `Cc1cc(C#N)cc(C(=O)Nc2ccnc(Cl)c2)n1` it is 238 °C; for `CC(C)CC1NC(C)(C)CNC1=O` (stereo unspecified) it is 112 to 115 °C.
`COC(=O)C(C)Nc1ccc(F)c(F)c1F` (stereo unspecified) yielded a melting point of 41 to 43 °C.
Molecule `CN(CCO[N+](=O)[O-])C(=O)COC(=O)c1cc(S(N)(=O)=O)c(Cl)cc1NCc1ccco1` gave a melting point of 70 to 72 °C.
With `O=[N+]([O-])c1cc(Cl)cc2c1OCCO2` the figure was 135 to 137 °C.
